Reference: PMC6225165, “Design and Synthesis of Novel Dehydroepiandrosterone Analogues as Potent Antiproliferative Agents” (Molecules : A Journal of Synthetic Chemistry and Natural …, 2018)
Values belong to the compound of their own block, whether it stands above or below them.

Experiments:
Hela = assay: MTT antiproliferative assay, Hela; assay type: cell-based, human; settings: 48 h, MTT; for inhibition at 100 µM: Homo sapiens, read-out: % Growth Inhibition at 100 μM Hela
Protocol: (§1) The antiproliferative activity of the title compounds against the panel of six different human cancer cell lines, viz. lung (A549), cervix (HeLa), liver (HepG-2), liver (BEL7402), colorectal (HCT116), and breast (MCF-7) cell lines, was evaluated using a standard MTT-based colorimetric assay. All cell lines were obtained from the Key Laboratory of Natural Resources and Functional Molecules of the Changbai Mountain (Yanbian University) and maintained in Dulbecco’s modified Eagle’s medium (DMEM) and RPMI Media 1640 (RPMI1640), supplemented with 10% foetal bovine serum (FBS) at 37 °C in a humidified atmosphere containing 5% CO2.
(§2) Cells were plated in 96-well plates at appropriate densities to ensure exponential growth throughout the experimental period (9 × 10^3 cells per well), and then allowed to adhere for 24 h. Cells were then treated for 48 h with each compound. After 48 h of incubation, 10 μL of MTT solution were added to each well to a final concentration of 2 mg·mL^−1. Plates were then incubated for a further 4 h. After incubation, the MTT solution was removed and 150 μL of DMSO were added to each well for coloration. The plates were shaken vigorously for 10 min at room temperature to ensure complete solubilisation. The optometric density (OD) was read on a microplate reader (EL × 800, BioTek, Highland Park, Winooski, VT, USA) at 492 nm, and the data were subsequently analysed. The percentage of cell growth inhibition was calculated from the following equation:Inhibitory rate (%) = [1 − (ODtreated − ODblank)/(ODcontrol − ODblank)] × 100.
(§3) To obtain the antiproliferative activity of compounds 2a–2w, the compounds were selected in the same way with four serial concentrations (1, 10, 50 and 100 μM) of those compounds. The optometric density (OD) reading was then used to calculate the IC50.

HCT116 = assay: MTT antiproliferative assay, HCT116; assay type: cell-based, human; settings: 48 h, MTT; for inhibition at 100 µM: read-out: % Growth Inhibition at 100 μM HCT116
Protocol: as §1, §2, §3

A549 = assay: MTT antiproliferative assay, A549; assay type: cell-based, human; settings: 48 h, MTT; for inhibition at 100 µM: Homo sapiens, A549, read-out: % Growth Inhibition at 100 μM A549
Protocol: as §1, §2, §3

HepG-2 = assay: MTT antiproliferative assay, HepG-2; assay type: cell-based, human; settings: 48 h, MTT; for inhibition at 100 µM: read-out: % Growth Inhibition at 100 μM HepG-2
Protocol: as §1, §2, §3

MCF-7 = assay: MTT antiproliferative assay, MCF-7; assay type: cell-based, human; settings: 48 h, MTT; for inhibition at 100 µM: read-out: % Growth Inhibition at 100 μM MCF-7
Protocol: as §1, §2, §3

BEL7402 = assay: MTT antiproliferative assay, BEL7402; assay type: cell-based, human; settings: 48 h, MTT; for inhibition at 100 µM: read-out: % Growth Inhibition at 100 μM BEL7402
Protocol: as §1, §2, §3

[1] = system: human normal liver (L02) cells; assay: MTT assay on normal cell line L02; assay type: cell-based; settings: 48 h, MTT; for % Growth Inhibition at 100 μM L02 / inhibition at 100 µM: normal cells; for inhibition at 100 µM: Homo sapiens, L02, read-out: % Growth Inhibition at 100 μM L02; for IC50: normal cell line

Compound: CC12CCC3C(CC=C4CC(O)CCC43C)C1C/C(=C\c1cn(-c3cccc(I)c3)nn1)C2=O (stereo not shown) [Compound 2m, (E)-3-hydroxy-16-((1-(3-iodophenyl)-1H-1,2,3-triazol-4-yl)methylene)-10,13-dim-ethyl-1,3,4,7,8,9,10,11,12,13,15,16-dodecahydro-2H-cyclopenta[a]phenanthren-17(14H)-one]
% Growth Inhibition at 100 μM Hela (Hela): NA (NA: antiproliferative activity <5%) | % Growth Inhibition at 100 μM HCT116 (HCT116): 7.6% | % Growth Inhibition at 100 μM A549 (A549): NA (NA: antiproliferative activity <5%) | % Growth Inhibition at 100 μM HepG-2 (HepG-2): NA (NA: antiproliferative activity <5%) | % Growth Inhibition at 100 μM MCF-7 (MCF-7): NA (NA: antiproliferative activity <5%) | % Growth Inhibition at 100 μM BEL7402 (BEL7402): 14.1% | % Growth Inhibition at 100 μM L02 [1]: NA (NA: antiproliferative activity <5%)

Compound: COc1cc(-n2cc(/C=C3\CC4C5CC=C6CC(O)CCC6(C)C5CCC4(C)C3=O)nn2)cc(OC)c1OC (stereo not shown) [Compound 2u, (E)-3-hydroxy-10,13-dimethyl-16-((1-(3,4,5-trimethoxyphenyl)-1H-1,2,3-triazol-4-yl)methylene)-1,3,4,7,8,9,10,11,12,13,15,16-dodecahydro-2H-cyclopenta[a]phenanthren17(14H)-one]
inhibition at 100 µM (Hela): 60.5% | inhibition at 100 µM (HCT116; Homo sapiens, HCT-116): 59.2% | inhibition at 100 µM (A549): 40.3% | inhibition at 100 µM (HepG-2; Homo sapiens, HepG2): 59.1% | inhibition at 100 µM (MCF-7; Homo sapiens, MCF7): 36.3% | inhibition at 100 µM (BEL7402; Homo sapiens, Bel-7402): 51.2% | inhibition at 100 µM [1]: 36.4%

Compound: Cc1cccc(-n2cc(/C=C3\CC4C5CC=C6CC(O)CCC6(C)C5CCC4(C)C3=O)nn2)c1 (stereo not shown) [Compound 2o, (E)-3-hydroxy-10,13-dimethyl-16-((1-m-tolyl-1H-1,2,3-triazol-4-yl)methylene)-1,3,4,7,8,9,10,11,12,13,15,16-dodecahydro-2H-cyclopenta[a]phenanthren-17(14H)-one]
inhibition at 100 µM (Hela): 12.7% | inhibition at 100 µM (HCT116; Homo sapiens, HCT-116): 40.9% | inhibition at 100 µM (A549): < 5% | inhibition at 100 µM (HepG-2; Homo sapiens, HepG2): 12.8% | inhibition at 100 µM (MCF-7; Homo sapiens, MCF7): 11.2% | inhibition at 100 µM (BEL7402; Homo sapiens, Bel-7402): 30.5% | inhibition at 100 µM [1]: 40.1%

Compound: CC12CCC3C(CC=C4CC(O)CCC43C)C1C/C(=C\c1cn(-c3ccc(Cl)c(Cl)c3)nn1)C2=O (stereo not shown) [Compound 2h, (E)-16-((1-(3,4-dichlorophenyl)-1H-1,2,3-triazol-4-yl)methylene)-3-hydroxy-10,13-dimethyl-1,3,4,7,8,9,10,11,12,13,15,16-dodecahydro-2H-cyclopenta[a]phenan-thren-17(14H)-one]
% Growth Inhibition at 100 μM Hela (Hela): 68.7% | IC50 (Hela): 15.1 µM | % Growth Inhibition at 100 μM HCT116 (HCT116): 74.4% | IC50 (HCT116): 11.9 µM | % Growth Inhibition at 100 μM A549 (A549): 70.7% | IC50 (A549): 17.5 µM | % Growth Inhibition at 100 μM HepG-2 (HepG-2): 48.2% | IC50 (HepG-2): > 100 µM | % Growth Inhibition at 100 μM MCF-7 (MCF-7): 80.0% | IC50 (MCF-7): 14.9 µM | % Growth Inhibition at 100 μM BEL7402 (BEL7402): 70.1% | IC50 (BEL7402): 16 µM | % Growth Inhibition at 100 μM L02 [1]: 67.9% | IC50 [1]: 26.4 µM

Compound: COc1ccc(-n2cc(/C=C3\CC4C5CC=C6CC(O)CCC6(C)C5CCC4(C)C3=O)nn2)cc1OC (stereo not shown) [Compound 2t, (E)-16-((1-(3,4-dimethoxyphenyl)-1H-1,2,3-triazol-4-yl)methylene)-3-hydroxy-10,13-dimethyl-1,3,4,7,8,9,10,11,12,13,15,16-dodecahydro-2H-cyclopenta[a]phenan-thren-17(14H)-one]
% Growth Inhibition at 100 μM Hela (Hela): NA (NA: antiproliferative activity <5%) | % Growth Inhibition at 100 μM HCT116 (HCT116): NA (NA: antiproliferative activity <5%) | % Growth Inhibition at 100 μM A549 (A549): NA (NA: antiproliferative activity <5%) | % Growth Inhibition at 100 μM HepG-2 (HepG-2): NA (NA: antiproliferative activity <5%) | % Growth Inhibition at 100 μM MCF-7 (MCF-7): NA (NA: antiproliferative activity <5%) | % Growth Inhibition at 100 μM BEL7402 (BEL7402): NA (NA: antiproliferative activity <5%) | % Growth Inhibition at 100 μM L02 [1]: 9.4%

Compound: COc1ccc(-n2cc(/C=C3\CC4C5CC=C6CC(O)CCC6(C)C5CCC4(C)C3=O)nn2)cc1 (stereo not shown) [Compound 2s, (E)-3-hydroxy-16-((1-(4-methoxyphenyl)-1H-1,2,3-triazol-4-yl)methylene)-10,13-dimethyl-1,3,4,7,8,9,10,11,12,13,15,16-dodecahydro-2H-cyclopenta[a]phenan-thren-17(14H)-one]
% Growth Inhibition at 100 μM Hela (Hela): 14.9% | IC50 (Hela): > 100 µM | % Growth Inhibition at 100 μM HCT116 (HCT116): 70.7% | IC50 (HCT116): 56.9 µM | % Growth Inhibition at 100 μM A549 (A549): 44.0% | IC50 (A549): > 100 µM | % Growth Inhibition at 100 μM HepG-2 (HepG-2): 42.3% | IC50 (HepG-2): > 100 µM | % Growth Inhibition at 100 μM MCF-7 (MCF-7): 58.1% | IC50 (MCF-7): 69.4 µM | % Growth Inhibition at 100 μM BEL7402 (BEL7402): 38.4% | IC50 (BEL7402): > 100 µM | % Growth Inhibition at 100 μM L02 [1]: 58.5% | IC50 [1]: 81.1 µM

Compound: CC12CCC3C(CC=C4CC(O)CCC43C)C1C/C(=C\c1cn(-c3ccccc3F)nn1)C2=O (stereo not shown) [Compound 2b, (E)-16-((1-(2-fluorophenyl)-1H-1,2,3-triazol-4-yl)methylene)-3-hydroxy-10,13-dimethyl-1,3,4,7,8,9,10,11,12,13,15,16-dodecahydro-2H-cyclopenta[a]phenan-thren-17(14H)-one]
% Growth Inhibition at 100 μM Hela (Hela): NA (NA: antiproliferative activity <5%) | % Growth Inhibition at 100 μM HCT116 (HCT116): NA (NA: antiproliferative activity <5%) | % Growth Inhibition at 100 μM A549 (A549): NA (NA: antiproliferative activity <5%) | % Growth Inhibition at 100 μM HepG-2 (HepG-2): NA (NA: antiproliferative activity <5%) | % Growth Inhibition at 100 μM MCF-7 (MCF-7): NA (NA: antiproliferative activity <5%) | % Growth Inhibition at 100 μM BEL7402 (BEL7402): NA (NA: antiproliferative activity <5%) | % Growth Inhibition at 100 μM L02 [1]: NA (NA: antiproliferative activity <5%)

Compound: CC12CCC3C(CC=C4CC(O)CCC43C)C1C/C(=C\c1cn(-c3ccc(C(F)(F)F)cc3)nn1)C2=O (stereo not drawn) [Compound 2w, (E)-3-hydroxy-10,13-dimethyl-16-((1-(4-(trifluoromethyl)phenyl)-1H-1,2,3-triazol4-y)methylene)-1,3,4,7,8,9,10,11,12,13,15,16-dodecahydro-2H-cyclopenta[α] phenanthren-17(14H)-one]
% Growth Inhibition at 100 μM Hela (Hela): 44.1% | IC50 (Hela): > 100 µM | % Growth Inhibition at 100 μM HCT116 (HCT116): 75.0% | IC50 (HCT116): 22.7 µM | % Growth Inhibition at 100 μM A549 (A549): 75.2% | IC50 (A549): 72.5 µM | % Growth Inhibition at 100 μM HepG-2 (HepG-2): 48.3% | IC50 (HepG-2): > 100 µM | % Growth Inhibition at 100 μM MCF-7 (MCF-7): 41.3% | IC50 (MCF-7): > 100 µM | % Growth Inhibition at 100 μM BEL7402 (BEL7402): 62.2% | IC50 (BEL7402): 94 µM | % Growth Inhibition at 100 μM L02 [1]: 57.6% | IC50 [1]: 93.7 µM

Compound: CC12CCC3C(CC=C4CC(O)CCC43C)C1C/C(=C\c1cn(-c3cccc(Cl)c3)nn1)C2=O (stereo not shown) [Compound 2f, (E)-16-((1-(3-chlorophenyl)-1H-1,2,3-triazol-4-yl)methylene)-3-hydroxy-10,13-dimethyl-1,3,4,7,8,9,10,11,12,13,15,16-dodecahydro-2H-cyclopenta[a]phenanthren-17(14H)-one]
inhibition at 100 µM (Hela): 9.2% | inhibition at 100 µM (HCT116; Homo sapiens, HCT-116): 41.9% | inhibition at 100 µM (A549): 11.9% | inhibition at 100 µM (HepG-2; Homo sapiens, HepG2): 51.7% | inhibition at 100 µM (MCF-7; Homo sapiens, MCF7): 41% | inhibition at 100 µM (BEL7402; Homo sapiens, Bel-7402): 36.5% | inhibition at 100 µM [1]: 60.2%

IC50 (HCT116; Homo sapiens, HCT-116): 24.8 µM | IC50 (MCF-7; Homo sapiens, MCF7): 28.1 µM | IC50 (BEL7402; Homo sapiens, Bel-7402): 21.3 µM
Compound: O=c1[nH]cc(F)c(=O)[nH]1 [Compound 5-FU, 5-fluorouracil, reference compound]
IC50 (HepG-2; Homo sapiens, HepG2): 10.6 µM
